test: Inhibition of Hepatitis C virus genotype 1a H77 replicon NS5A transfected in human HuH7 cells assessed as decrease in replication of viral replicon after 4 days by luciferase reporter gene assay; format: cell-based, Hepatitis C virus (isolate H77); conditions: Huh-7, 96 h

| Structure (SMILES) | EC50 |
| --- | --- |
| COC(=O)N[C@H](C(=O)N1CCC[C@H]1c1nc2cc(-c3ccc(-c4cc(C)c5[nH]c([C@@H]6CCCN6C(=O)[C@@H](NC(=O)OC)C(C)C)nc5c4)cc3)cc(C)c2[nH]1)C(C)C | 0.98 nM |
| COC(=O)N[C@H](C(=O)N1CCC[C@H]1c1nc2cc(-c3ccc(-c4cc(C(F)(F)F)c5[nH]c([C@@H]6CCCN6C(=O)[C@@H](NC(=O)OC)C(C)C)nc5c4)cc3)cc(C(F)(F)F)c2[nH]1)C(C)C | 23 nM |
| COC(=O)N[C@H](C(=O)N1CCC[C@H]1c1nc2nc(-c3ccc(-c4ccc5[nH]c([C@@H]6CCCN6C(=O)[C@@H](NC(=O)OC)C(C)C)nc5n4)cc3)ccc2[nH]1)C(C)C | 1.12 nM |
| COC(=O)N[C@H](C(=O)N1CCC[C@H]1c1nc2c(F)c(-c3ccc(-c4c(F)cc5[nH]c([C@@H]6CCCN6C(=O)[C@@H](NC(=O)OC)C(C)C)nc5c4F)cc3)c(F)cc2[nH]1)C(C)C | 0.507 nM |
| COC(=O)N[C@H](C(=O)N1CCC[C@H]1c1cc2nc(-c3ccc(-c4ccc5[nH]c([C@@H]6CCCN6C(=O)[C@@H](NC(=O)OC)C(C)C)cc5n4)cc3)ccc2[nH]1)C(C)C | > 100 nM |

test: Inhibition of Hepatitis C virus genotype 1b Con1 replicon NS5A transfected in human HuH7 cells assessed as decrease in replication of viral replicon after 4 days by luciferase reporter gene assay; format: cell-based, Hepatitis C virus (isolate Con1); conditions: Huh-7, 96 h

| Structure (SMILES) | EC50 |
| --- | --- |
| COC(=O)N[C@H](C(=O)N1CCC[C@H]1c1nc2cc(-c3ccc(-c4cc(C)c5[nH]c([C@@H]6CCCN6C(=O)[C@@H](NC(=O)OC)C(C)C)nc5c4)cc3)cc(C)c2[nH]1)C(C)C | 0.031 nM |
| COC(=O)N[C@H](C(=O)N1CCC[C@H]1c1nc2cc(-c3ccc(-c4cc(C(F)(F)F)c5[nH]c([C@@H]6CCCN6C(=O)[C@@H](NC(=O)OC)C(C)C)nc5c4)cc3)cc(C(F)(F)F)c2[nH]1)C(C)C | 0.107 nM |
| COC(=O)N[C@H](C(=O)N1CCC[C@H]1c1nc2nc(-c3ccc(-c4ccc5[nH]c([C@@H]6CCCN6C(=O)[C@@H](NC(=O)OC)C(C)C)nc5n4)cc3)ccc2[nH]1)C(C)C | 0.283 nM |
| COC(=O)N[C@H](C(=O)N1CCC[C@H]1c1nc2c(F)c(-c3ccc(-c4c(F)cc5[nH]c([C@@H]6CCCN6C(=O)[C@@H](NC(=O)OC)C(C)C)nc5c4F)cc3)c(F)cc2[nH]1)C(C)C | 0.016 nM |
| COC(=O)N[C@H](C(=O)N1CCC[C@H]1c1cc2nc(-c3ccc(-c4ccc5[nH]c([C@@H]6CCCN6C(=O)[C@@H](NC(=O)OC)C(C)C)cc5n4)cc3)ccc2[nH]1)C(C)C | 7.44 nM |

test: Inhibition of Hepatitis C virus genotype 2a replicon NS5A transfected in human HuH7 cells assessed as decrease in replication of viral replicon after 4 days by luciferase reporter gene assay; format: cell-based, Hepatitis C virus subtype 2a; conditions: Huh-7, 96 h

| Structure (SMILES) | EC50 |
| --- | --- |
| COC(=O)N[C@H](C(=O)N1CCC[C@H]1c1nc2cc(-c3ccc(-c4cc(C)c5[nH]c([C@@H]6CCCN6C(=O)[C@@H](NC(=O)OC)C(C)C)nc5c4)cc3)cc(C)c2[nH]1)C(C)C | > 100 nM |
| COC(=O)N[C@H](C(=O)N1CCC[C@H]1c1nc2cc(-c3ccc(-c4cc(C(F)(F)F)c5[nH]c([C@@H]6CCCN6C(=O)[C@@H](NC(=O)OC)C(C)C)nc5c4)cc3)cc(C(F)(F)F)c2[nH]1)C(C)C | > 100 nM |
| COC(=O)N[C@H](C(=O)N1CCC[C@H]1c1nc2nc(-c3ccc(-c4ccc5[nH]c([C@@H]6CCCN6C(=O)[C@@H](NC(=O)OC)C(C)C)nc5n4)cc3)ccc2[nH]1)C(C)C | > 100 nM |
| COC(=O)N[C@H](C(=O)N1CCC[C@H]1c1nc2c(F)c(-c3ccc(-c4c(F)cc5[nH]c([C@@H]6CCCN6C(=O)[C@@H](NC(=O)OC)C(C)C)nc5c4F)cc3)c(F)cc2[nH]1)C(C)C | 43.1 nM |
| COC(=O)N[C@H](C(=O)N1CCC[C@H]1c1cc2nc(-c3ccc(-c4ccc5[nH]c([C@@H]6CCCN6C(=O)[C@@H](NC(=O)OC)C(C)C)cc5n4)cc3)ccc2[nH]1)C(C)C | > 100 nM |

test: Inhibition of Hepatitis C virus genotype 2b replicon NS5A transfected in human HuH7 cells assessed as decrease in replication of viral replicon after 4 days by luciferase reporter gene assay; format: cell-based, Hepatitis C virus subtype 2b; conditions: Huh-7, 96 h

| Structure (SMILES) | EC50 |
| --- | --- |
| COC(=O)N[C@H](C(=O)N1CCC[C@H]1c1nc2cc(-c3ccc(-c4cc(C)c5[nH]c([C@@H]6CCCN6C(=O)[C@@H](NC(=O)OC)C(C)C)nc5c4)cc3)cc(C)c2[nH]1)C(C)C | 3.93 nM |
| COC(=O)N[C@H](C(=O)N1CCC[C@H]1c1nc2cc(-c3ccc(-c4cc(C(F)(F)F)c5[nH]c([C@@H]6CCCN6C(=O)[C@@H](NC(=O)OC)C(C)C)nc5c4)cc3)cc(C(F)(F)F)c2[nH]1)C(C)C | > 10 nM |
| COC(=O)N[C@H](C(=O)N1CCC[C@H]1c1nc2nc(-c3ccc(-c4ccc5[nH]c([C@@H]6CCCN6C(=O)[C@@H](NC(=O)OC)C(C)C)nc5n4)cc3)ccc2[nH]1)C(C)C | 1.43 nM |
| COC(=O)N[C@H](C(=O)N1CCC[C@H]1c1nc2c(F)c(-c3ccc(-c4c(F)cc5[nH]c([C@@H]6CCCN6C(=O)[C@@H](NC(=O)OC)C(C)C)nc5c4F)cc3)c(F)cc2[nH]1)C(C)C | 0.218 nM |
| COC(=O)N[C@H](C(=O)N1CCC[C@H]1c1cc2nc(-c3ccc(-c4ccc5[nH]c([C@@H]6CCCN6C(=O)[C@@H](NC(=O)OC)C(C)C)cc5n4)cc3)ccc2[nH]1)C(C)C | > 100 nM |

test: Inhibition of Hepatitis C virus genotype 3a replicon NS5A transfected in human HuH7 cells assessed as decrease in replication of viral replicon after 4 days by luciferase reporter gene assay; format: cell-based, Hepatitis C virus subtype 3a; conditions: Huh-7, 96 h

| Structure (SMILES) | EC50 |
| --- | --- |
| COC(=O)N[C@H](C(=O)N1CCC[C@H]1c1nc2cc(-c3ccc(-c4cc(C)c5[nH]c([C@@H]6CCCN6C(=O)[C@@H](NC(=O)OC)C(C)C)nc5c4)cc3)cc(C)c2[nH]1)C(C)C | 17.5 nM |
| COC(=O)N[C@H](C(=O)N1CCC[C@H]1c1nc2cc(-c3ccc(-c4cc(C(F)(F)F)c5[nH]c([C@@H]6CCCN6C(=O)[C@@H](NC(=O)OC)C(C)C)nc5c4)cc3)cc(C(F)(F)F)c2[nH]1)C(C)C | > 100 nM |
| COC(=O)N[C@H](C(=O)N1CCC[C@H]1c1nc2nc(-c3ccc(-c4ccc5[nH]c([C@@H]6CCCN6C(=O)[C@@H](NC(=O)OC)C(C)C)nc5n4)cc3)ccc2[nH]1)C(C)C | 6.69 nM |
| COC(=O)N[C@H](C(=O)N1CCC[C@H]1c1nc2c(F)c(-c3ccc(-c4c(F)cc5[nH]c([C@@H]6CCCN6C(=O)[C@@H](NC(=O)OC)C(C)C)nc5c4F)cc3)c(F)cc2[nH]1)C(C)C | 1.43 nM |
| COC(=O)N[C@H](C(=O)N1CCC[C@H]1c1cc2nc(-c3ccc(-c4ccc5[nH]c([C@@H]6CCCN6C(=O)[C@@H](NC(=O)OC)C(C)C)cc5n4)cc3)ccc2[nH]1)C(C)C | > 100 nM |

test: Inhibition of Hepatitis C virus genotype 4a replicon NS5A transfected in human HuH7 cells assessed as decrease in replication of viral replicon after 4 days by luciferase reporter gene assay; format: cell-based, Hepatitis C virus subtype 4a; conditions: Huh-7, 96 h

| Structure (SMILES) | EC50 |
| --- | --- |
| COC(=O)N[C@H](C(=O)N1CCC[C@H]1c1nc2cc(-c3ccc(-c4cc(C)c5[nH]c([C@@H]6CCCN6C(=O)[C@@H](NC(=O)OC)C(C)C)nc5c4)cc3)cc(C)c2[nH]1)C(C)C | 0.404 nM |
| COC(=O)N[C@H](C(=O)N1CCC[C@H]1c1nc2cc(-c3ccc(-c4cc(C(F)(F)F)c5[nH]c([C@@H]6CCCN6C(=O)[C@@H](NC(=O)OC)C(C)C)nc5c4)cc3)cc(C(F)(F)F)c2[nH]1)C(C)C | 1.9 nM |
| COC(=O)N[C@H](C(=O)N1CCC[C@H]1c1nc2nc(-c3ccc(-c4ccc5[nH]c([C@@H]6CCCN6C(=O)[C@@H](NC(=O)OC)C(C)C)nc5n4)cc3)ccc2[nH]1)C(C)C | 1.84 nM |
| COC(=O)N[C@H](C(=O)N1CCC[C@H]1c1nc2c(F)c(-c3ccc(-c4c(F)cc5[nH]c([C@@H]6CCCN6C(=O)[C@@H](NC(=O)OC)C(C)C)nc5c4F)cc3)c(F)cc2[nH]1)C(C)C | 0.077 nM |
| COC(=O)N[C@H](C(=O)N1CCC[C@H]1c1cc2nc(-c3ccc(-c4ccc5[nH]c([C@@H]6CCCN6C(=O)[C@@H](NC(=O)OC)C(C)C)cc5n4)cc3)ccc2[nH]1)C(C)C | > 100 nM |

test: Inhibition of Hepatitis C virus genotype 6a replicon NS5A transfected in human HuH7 cells assessed as decrease in replication of viral replicon after 4 days by luciferase reporter gene assay; format: cell-based, Hepatitis C virus subtype 6a; conditions: Huh-7, 96 h

| Structure (SMILES) | EC50 |
| --- | --- |
| COC(=O)N[C@H](C(=O)N1CCC[C@H]1c1nc2cc(-c3ccc(-c4cc(C)c5[nH]c([C@@H]6CCCN6C(=O)[C@@H](NC(=O)OC)C(C)C)nc5c4)cc3)cc(C)c2[nH]1)C(C)C | 22.9 nM |
| COC(=O)N[C@H](C(=O)N1CCC[C@H]1c1nc2cc(-c3ccc(-c4cc(C(F)(F)F)c5[nH]c([C@@H]6CCCN6C(=O)[C@@H](NC(=O)OC)C(C)C)nc5c4)cc3)cc(C(F)(F)F)c2[nH]1)C(C)C | > 10 nM |
| COC(=O)N[C@H](C(=O)N1CCC[C@H]1c1nc2c(F)c(-c3ccc(-c4c(F)cc5[nH]c([C@@H]6CCCN6C(=O)[C@@H](NC(=O)OC)C(C)C)nc5c4F)cc3)c(F)cc2[nH]1)C(C)C | 17.3 nM |
